Data on three molecules can be found in ChEMBL document CHEMBL1201862, “PubChem BioAssay data set” (2004).

Assay [1] concerns the target T1, High affinity choline transporter 1 (Homo sapiens, UniProt Q9GZV3).
T1 sequence (Q9GZV3 whole entry): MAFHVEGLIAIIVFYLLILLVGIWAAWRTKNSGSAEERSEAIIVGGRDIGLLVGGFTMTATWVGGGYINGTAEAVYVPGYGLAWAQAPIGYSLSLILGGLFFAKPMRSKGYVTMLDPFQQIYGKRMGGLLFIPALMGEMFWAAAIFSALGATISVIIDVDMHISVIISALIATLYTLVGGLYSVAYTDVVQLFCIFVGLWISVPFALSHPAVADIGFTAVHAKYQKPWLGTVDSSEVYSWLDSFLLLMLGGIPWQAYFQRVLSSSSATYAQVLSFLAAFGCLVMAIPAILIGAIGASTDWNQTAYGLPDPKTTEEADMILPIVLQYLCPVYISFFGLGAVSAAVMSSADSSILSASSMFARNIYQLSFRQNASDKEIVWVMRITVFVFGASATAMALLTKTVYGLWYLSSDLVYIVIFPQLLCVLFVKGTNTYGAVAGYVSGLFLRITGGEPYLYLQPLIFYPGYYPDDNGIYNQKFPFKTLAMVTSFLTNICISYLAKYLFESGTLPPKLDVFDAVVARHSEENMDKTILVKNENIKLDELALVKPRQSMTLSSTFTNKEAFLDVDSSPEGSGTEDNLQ
The assay can be described thus: CHT inhibitors, dose response, cell-based, 5-point CRC, membrane potential dye (AID 504840). The assay is classed as functional.

The target in assay [2] is T1, High affinity choline transporter 1. The assay can be described thus: CHT inhibitors, dose response, cell-based, 10-point CRC, membrane potential dye (AID 588401).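 Also: membrane potential dye fluorescence of choline-evoked depolarization via CHT.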 The assay is classed as functional.
The target of assay [3] is Melanin-concentrating hormone receptor 1 (Homo sapiens, UniProt Q99705). The assay can be described thus: Late-stage fluorescence-based counterscreen for antagonists of the G-protein coupled receptor 7 (GPR7): cell-based dose response assay to identify antagonists of the melanin-concentrating hormone receptor 1 (MCHR1) Set 5. The format is functional. On the technique in general: The purpose of a counterscreen is to sort out artefacts and off-target activity.
Melanin-concentrating hormone receptor 1, sequence (Q99705 whole entry): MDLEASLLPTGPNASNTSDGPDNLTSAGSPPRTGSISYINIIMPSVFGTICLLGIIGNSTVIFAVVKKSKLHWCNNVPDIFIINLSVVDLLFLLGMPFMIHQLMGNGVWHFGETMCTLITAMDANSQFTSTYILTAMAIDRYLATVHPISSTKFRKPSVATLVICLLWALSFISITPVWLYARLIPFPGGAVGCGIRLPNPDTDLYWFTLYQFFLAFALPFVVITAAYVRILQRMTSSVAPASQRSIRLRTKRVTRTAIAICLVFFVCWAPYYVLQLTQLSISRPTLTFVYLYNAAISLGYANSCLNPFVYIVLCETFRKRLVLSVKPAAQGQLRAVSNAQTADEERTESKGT

For assay [4], the target named is Neuropeptides B/W receptor type 1 (Homo sapiens, UniProt P48145). The assay can be described thus: GPR7 antagonist potency, late-stage follow-up, cell-based, fluorescence, dose response, set 5 (AID 588566). The format is functional.
Neuropeptides B/W receptor type 1, sequence (P48145 whole entry): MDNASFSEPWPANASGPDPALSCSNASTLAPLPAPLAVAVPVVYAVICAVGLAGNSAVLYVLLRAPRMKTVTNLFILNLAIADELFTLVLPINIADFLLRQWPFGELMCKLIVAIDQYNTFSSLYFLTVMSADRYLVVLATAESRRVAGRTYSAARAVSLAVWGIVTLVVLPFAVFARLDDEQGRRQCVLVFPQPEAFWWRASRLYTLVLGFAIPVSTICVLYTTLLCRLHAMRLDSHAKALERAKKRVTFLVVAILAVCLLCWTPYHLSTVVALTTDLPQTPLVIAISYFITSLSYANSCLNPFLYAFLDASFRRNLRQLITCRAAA
A short description of assay [5]: nonselective inhibitors of cellular cAMP signaling, dose response, counter-screen for MC4R biased antagonist project, cell-based, TR-FRET cAMP detection (AID 602305).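 Also: U2OS cells stimulated with forskolin near its EC80 as the cAMP inducer; potency is for inhibition of forskolin-stimulated cAMP signaling.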 The assay is classed as functional.
For assay [6], the target named is T2, Protein RecA (Mycobacterium tuberculosis, UniProt P9WHJ3).
T2 sequence (P9WHJ3 whole entry): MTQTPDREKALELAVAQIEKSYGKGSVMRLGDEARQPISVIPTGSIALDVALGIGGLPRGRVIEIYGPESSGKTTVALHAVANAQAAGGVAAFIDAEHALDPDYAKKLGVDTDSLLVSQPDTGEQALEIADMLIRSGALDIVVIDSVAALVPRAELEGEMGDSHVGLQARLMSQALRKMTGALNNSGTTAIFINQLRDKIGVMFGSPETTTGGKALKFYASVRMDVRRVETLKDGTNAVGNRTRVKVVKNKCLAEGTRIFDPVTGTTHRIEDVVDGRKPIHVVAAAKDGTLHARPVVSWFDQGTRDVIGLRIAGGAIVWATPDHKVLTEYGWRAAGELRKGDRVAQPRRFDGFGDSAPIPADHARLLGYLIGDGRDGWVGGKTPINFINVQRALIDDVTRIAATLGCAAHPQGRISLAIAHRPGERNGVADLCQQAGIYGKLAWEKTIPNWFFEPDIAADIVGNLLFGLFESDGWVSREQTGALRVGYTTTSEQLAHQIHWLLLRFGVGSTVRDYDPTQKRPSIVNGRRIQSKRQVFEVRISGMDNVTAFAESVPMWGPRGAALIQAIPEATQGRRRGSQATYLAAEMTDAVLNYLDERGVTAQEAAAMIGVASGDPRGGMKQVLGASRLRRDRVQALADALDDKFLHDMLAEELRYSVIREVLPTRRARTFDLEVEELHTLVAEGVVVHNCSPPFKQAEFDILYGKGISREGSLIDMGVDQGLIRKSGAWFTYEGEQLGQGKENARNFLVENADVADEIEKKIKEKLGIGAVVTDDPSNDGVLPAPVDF
The assay can be described thus: Fluorescence Cell-Free Homogeneous Dose Retest to Identify Inhibitors of RecA-Intein Splicing Activity. [Related pubchem assays (depositor defined):AID2097, AID2223, AID489010, AID492950]. The format is functional.

The nature of assay [7]: growth suppression of beta-catenin-knockout colon cells, dose response, cell-based, HCT116, human colon tumor (AID 1045).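 Also: HCT116 colon tumor cells with beta catenin knocked out; cells exposed to compound for 60 hours.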 The format is functional.
Assay [8] is described as follows: growth suppression of PTEN-null colon cells, dose response, cell-based, HCT116 PTEN knockout (AID 1047).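 Also: HCT116 colon tumor cells with PTEN knocked out; cells exposed to compound for 60 hours before readout; potency for loss of cell viability measured by luminescence.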 The format is functional.
For assay [9], the target named is T3, Sphingosine 1-phosphate receptor 4 (Homo sapiens, UniProt O95977).
T3 sequence (O95977 whole entry): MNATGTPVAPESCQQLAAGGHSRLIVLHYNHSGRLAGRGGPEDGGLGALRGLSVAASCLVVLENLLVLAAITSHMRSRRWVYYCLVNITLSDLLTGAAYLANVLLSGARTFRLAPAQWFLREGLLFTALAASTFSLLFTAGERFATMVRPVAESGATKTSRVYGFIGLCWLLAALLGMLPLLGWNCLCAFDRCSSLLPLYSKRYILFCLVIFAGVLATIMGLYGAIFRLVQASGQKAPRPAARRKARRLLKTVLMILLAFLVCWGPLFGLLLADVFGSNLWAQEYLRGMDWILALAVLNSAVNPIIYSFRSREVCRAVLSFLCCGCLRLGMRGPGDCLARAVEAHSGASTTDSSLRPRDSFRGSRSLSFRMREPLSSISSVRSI
The assay can be described thus: Late stage fluorescence dose response cell-based screening assay for antagonists of the Sphingosine 1-Phosphate Receptor 4 (S1P4). [Related pubchem assays: 1524 (Confirmation screen (S1P4 antagonists).), 1510 (Primary screen (S1P4 antagonists).), 1853 (Summary AID (S1P4 antagonists).), 1692 (Dose response screen (S1P4 antagonists).)]. The format is functional.

Assay [10] concerns the target T4, Streptokinase A (Streptococcus pyogenes serotype M1, UniProt P10520).
T4 sequence (P10520 whole entry): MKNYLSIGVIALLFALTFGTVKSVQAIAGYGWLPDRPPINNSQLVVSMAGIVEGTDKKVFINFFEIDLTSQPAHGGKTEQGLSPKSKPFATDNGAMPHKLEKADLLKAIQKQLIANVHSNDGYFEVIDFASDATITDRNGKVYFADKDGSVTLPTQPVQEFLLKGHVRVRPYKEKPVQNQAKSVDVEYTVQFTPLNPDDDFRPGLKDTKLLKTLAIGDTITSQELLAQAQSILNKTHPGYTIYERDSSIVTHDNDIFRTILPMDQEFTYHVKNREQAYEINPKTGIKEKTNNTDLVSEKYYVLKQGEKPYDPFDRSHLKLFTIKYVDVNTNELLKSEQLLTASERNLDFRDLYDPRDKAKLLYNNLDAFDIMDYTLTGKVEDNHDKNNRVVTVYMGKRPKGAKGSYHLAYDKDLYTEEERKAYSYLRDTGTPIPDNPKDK
Put plainly: S. pyogenes streptokinase expression inhibitors, potency, dose response, plasminogen activation absorbance, OD405 (AID 1914).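 Also: secreted streptokinase activity via plasminogen activation per viability signal from cell pellet.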 The format is functional, Streptococcus pyogenes M1 GAS.

The subject of assay [11] is Streptococcus. Put plainly: Group A Streptococcus viability loss, dose response, counter-screen for streptokinase expression inhibitor project, luminescence, BacTiterGlo (AID 1915).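 Also: potency for reduction of bacterial viability or growth.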 The assay is classed as functional, organism-based.
The target of assay [12] is Melanocortin receptor 4 (Homo sapiens, UniProt P32245). Put plainly: MC4R antagonist potency on cAMP, dose response, cell-based, TR-FRET, biased antagonists (AID 602298).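 Also: antagonist potency against agonist-stimulated cAMP production.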 The format is functional. In general terms: In TR-FRET formats the signal depends on donor and acceptor labels being close together.
Melanocortin receptor 4, sequence (P32245 whole entry): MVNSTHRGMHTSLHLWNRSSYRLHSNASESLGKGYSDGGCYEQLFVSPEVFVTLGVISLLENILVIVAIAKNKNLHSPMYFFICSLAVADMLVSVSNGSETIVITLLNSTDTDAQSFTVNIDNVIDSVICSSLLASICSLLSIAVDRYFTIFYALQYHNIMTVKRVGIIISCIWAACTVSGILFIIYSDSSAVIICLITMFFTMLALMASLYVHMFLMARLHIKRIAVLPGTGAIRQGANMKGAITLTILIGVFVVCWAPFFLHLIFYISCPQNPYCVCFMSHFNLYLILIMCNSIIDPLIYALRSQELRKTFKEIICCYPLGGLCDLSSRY
Assay [13] is described as follows: Luminescence Cell-Based Dose Retest to Confirm Inhibitors of Cancer Stem Cells. [Related pubchem assays (depositor defined):AID2717, AID2721]. The format is functional. The following applies: Homo sapiens.
For assay [14], the target named is T5, Replicative DNA helicase DnaB (Mycobacterium tuberculosis, UniProt P9WMR3).
T5 sequence (P9WMR3 whole entry): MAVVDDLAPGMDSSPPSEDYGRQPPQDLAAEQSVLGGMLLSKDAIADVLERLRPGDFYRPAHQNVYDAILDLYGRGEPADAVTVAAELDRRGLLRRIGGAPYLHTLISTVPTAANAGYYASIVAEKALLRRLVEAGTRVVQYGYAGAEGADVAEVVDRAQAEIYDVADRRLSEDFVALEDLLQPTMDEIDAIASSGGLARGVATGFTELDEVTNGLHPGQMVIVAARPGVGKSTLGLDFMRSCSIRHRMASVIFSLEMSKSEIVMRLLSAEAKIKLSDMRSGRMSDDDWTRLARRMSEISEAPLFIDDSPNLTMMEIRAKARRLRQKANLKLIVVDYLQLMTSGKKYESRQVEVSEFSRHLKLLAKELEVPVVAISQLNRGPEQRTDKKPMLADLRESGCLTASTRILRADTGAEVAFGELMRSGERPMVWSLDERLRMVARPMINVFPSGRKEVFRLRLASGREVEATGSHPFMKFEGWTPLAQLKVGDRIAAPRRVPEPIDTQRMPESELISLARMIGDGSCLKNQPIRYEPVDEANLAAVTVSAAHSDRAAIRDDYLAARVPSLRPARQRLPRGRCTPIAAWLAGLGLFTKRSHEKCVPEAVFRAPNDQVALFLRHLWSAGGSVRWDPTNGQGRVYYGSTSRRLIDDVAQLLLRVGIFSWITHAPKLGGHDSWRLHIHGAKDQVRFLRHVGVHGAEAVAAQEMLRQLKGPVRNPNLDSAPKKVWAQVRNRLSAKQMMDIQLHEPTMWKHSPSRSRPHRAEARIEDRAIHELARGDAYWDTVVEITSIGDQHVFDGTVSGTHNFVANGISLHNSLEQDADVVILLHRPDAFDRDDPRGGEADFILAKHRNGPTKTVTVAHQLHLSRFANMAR
Put plainly: DnaB intein splicing inhibitors, dose response, biochemical, cell-free fluorescence (AID 449749). The assay is classed as functional.

Assay [15] relates to Streptococcus sp. 'group A'. Put plainly: growth inhibition of control SK(-) GAS strain, dose response, counter-screen for streptokinase expression inhibitor project, luminescence, kanamycin, BacTiterGlo, confirmation (AID 1900). The format is functional, organism-based.
Assay [16] deals with T3, Sphingosine 1-phosphate receptor 4. Put plainly: Fluorescence dose response cell-based high throughput screening assay for antagonists of the Sphingosine 1-Phosphate Receptor 4 (S1P4). [Related pubchem assays: 1524 (Confirmation in triplicates.), 1510 (Primary screen.)]. The assay is classed as functional.
The target of assay [17] is Sphingosine 1-phosphate receptor 1 (Homo sapiens, UniProt P21453). The assay is classed as functional.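 Also: Tango beta-arrestin reporter U2OS cells stimulated with S1P near its EC80; inhibitor potency meaning antagonism of receptor activation by the natural agonist.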
Sphingosine 1-phosphate receptor 1, sequence (P21453 whole entry): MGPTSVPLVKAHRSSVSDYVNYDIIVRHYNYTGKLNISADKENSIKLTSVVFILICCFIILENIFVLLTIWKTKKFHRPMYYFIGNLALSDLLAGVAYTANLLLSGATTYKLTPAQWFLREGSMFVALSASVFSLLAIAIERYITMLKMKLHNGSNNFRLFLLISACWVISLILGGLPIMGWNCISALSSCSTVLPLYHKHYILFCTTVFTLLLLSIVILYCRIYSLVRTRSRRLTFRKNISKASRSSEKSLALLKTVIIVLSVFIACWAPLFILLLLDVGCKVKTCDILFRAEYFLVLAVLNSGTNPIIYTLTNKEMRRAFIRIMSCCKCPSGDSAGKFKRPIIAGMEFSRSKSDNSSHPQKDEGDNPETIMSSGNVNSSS

Activity calls are given as the source filed them.

Consider `Clc1cc(I)cc(Cl)c1N=C1NCCN1`, for which the IC50 was 1.12 µM (active) in [1] and 0.843 µM (active) in assay [2].

For `O=c1c(Oc2ccc3ccccc3c2)c(Cl)cnn1Cc1cccc2ccccc12`, the IC50 in assay [3] and in assay [4] was > 20 µM (inactive) each time.

As for `O=[N+]([O-])c1cc(S(=O)(=O)C(F)(F)F)ccc1Sc1nc2ccccc2[nH]1`, the IC50 in assay [5] was > 64.6 µM (inactive); in [9], 0.77 µM (active); in assay [12], 7.65 µM (active); in assay [16], 1.29 µM (active); in [17] it was 34.3 µM (not active). Moreover, the EC50 in [6] is 0.774 µM (active); in assay [7] it was 6.72 µM (active); in assay [8], 7.22 µM (active); in [10], > 150 µM (not active); in assay [11] it was 11.9 µM (active); in assay [15], 5.93 µM (active). Also, the AC50 in assay [13] was 4.04 µM (active); in assay [14] it was 2.83 µM (active).

What is called IC50 is the concentration needed to halve the response being measured. What is called EC50 is the concentration needed to bring the measured effect to its halfway point. Usually AC50 stands for the concentration giving half of the maximal activity seen.
